Assay [1] concerns Human large cell immunoblastic lymphoma cell line SR. Put plainly: Inhibition of SR cell proliferation (CellTiter luminescent viability). It is filed as cell-based. The conditions noted are these: Table IB1, ALK inhibitor-based, 96 hours, read-out: Inhibitory activity (IC50, nM) on tumor cell proliferation, SR. The essentials: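 IC50 is fitted from luminescent viability (CellTiter-Meiluncell) curves. Nine-point, 5-fold dilution series (top stock 2000 μM) are added at 0.5 μL per 100 μL medium to cells plated the day before, with growth at 37 °C and 5% CO2.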

The target of assay [2] is T1, ALK (Homo sapiens, UniProt Q9UM73).
T1 construct: known EML4-ALK variant 3 fusion, ALK kinase part unmutated), Western blot
T1 sequence (Q9UM73 19-1620): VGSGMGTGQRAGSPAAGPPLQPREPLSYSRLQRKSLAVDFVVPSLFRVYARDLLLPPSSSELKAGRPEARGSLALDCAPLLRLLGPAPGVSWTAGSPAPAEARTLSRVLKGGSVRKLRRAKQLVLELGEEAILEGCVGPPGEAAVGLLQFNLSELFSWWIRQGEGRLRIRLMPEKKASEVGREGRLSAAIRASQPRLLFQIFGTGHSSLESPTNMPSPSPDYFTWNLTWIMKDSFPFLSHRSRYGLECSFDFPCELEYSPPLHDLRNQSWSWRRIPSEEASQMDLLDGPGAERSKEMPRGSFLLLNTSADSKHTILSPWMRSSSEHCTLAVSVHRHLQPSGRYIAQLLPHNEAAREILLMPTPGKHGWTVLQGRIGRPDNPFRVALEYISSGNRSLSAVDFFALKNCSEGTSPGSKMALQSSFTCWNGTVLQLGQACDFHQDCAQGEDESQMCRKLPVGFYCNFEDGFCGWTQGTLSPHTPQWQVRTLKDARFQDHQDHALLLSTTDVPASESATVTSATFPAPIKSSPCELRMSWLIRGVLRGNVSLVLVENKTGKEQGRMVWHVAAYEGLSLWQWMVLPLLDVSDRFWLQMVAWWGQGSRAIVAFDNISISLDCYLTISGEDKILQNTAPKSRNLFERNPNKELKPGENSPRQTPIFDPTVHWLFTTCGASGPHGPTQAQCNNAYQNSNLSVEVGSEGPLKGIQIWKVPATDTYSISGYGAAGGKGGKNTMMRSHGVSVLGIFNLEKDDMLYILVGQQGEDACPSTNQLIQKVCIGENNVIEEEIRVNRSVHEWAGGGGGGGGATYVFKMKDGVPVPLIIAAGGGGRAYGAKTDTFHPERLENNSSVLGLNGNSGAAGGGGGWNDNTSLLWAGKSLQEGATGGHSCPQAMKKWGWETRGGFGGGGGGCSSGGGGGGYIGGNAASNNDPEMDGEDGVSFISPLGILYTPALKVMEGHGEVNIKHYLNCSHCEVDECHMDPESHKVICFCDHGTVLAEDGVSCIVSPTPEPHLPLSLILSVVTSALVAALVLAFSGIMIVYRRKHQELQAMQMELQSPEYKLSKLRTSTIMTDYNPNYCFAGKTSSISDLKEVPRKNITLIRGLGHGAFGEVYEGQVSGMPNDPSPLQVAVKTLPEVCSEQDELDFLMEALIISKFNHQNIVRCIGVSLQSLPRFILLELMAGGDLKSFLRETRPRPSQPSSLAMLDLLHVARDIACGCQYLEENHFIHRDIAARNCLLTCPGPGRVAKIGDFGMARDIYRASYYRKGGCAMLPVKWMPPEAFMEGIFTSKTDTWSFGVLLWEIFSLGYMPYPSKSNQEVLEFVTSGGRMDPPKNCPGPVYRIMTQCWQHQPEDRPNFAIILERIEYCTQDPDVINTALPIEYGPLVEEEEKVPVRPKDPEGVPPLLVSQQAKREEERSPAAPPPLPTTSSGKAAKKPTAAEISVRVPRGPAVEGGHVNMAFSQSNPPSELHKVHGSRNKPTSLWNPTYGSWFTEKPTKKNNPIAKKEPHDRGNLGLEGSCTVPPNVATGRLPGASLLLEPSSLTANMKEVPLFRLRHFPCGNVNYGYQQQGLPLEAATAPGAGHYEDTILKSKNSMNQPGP
T1 sequence (Q96SW2 whole entry partner, the tested form may be a part): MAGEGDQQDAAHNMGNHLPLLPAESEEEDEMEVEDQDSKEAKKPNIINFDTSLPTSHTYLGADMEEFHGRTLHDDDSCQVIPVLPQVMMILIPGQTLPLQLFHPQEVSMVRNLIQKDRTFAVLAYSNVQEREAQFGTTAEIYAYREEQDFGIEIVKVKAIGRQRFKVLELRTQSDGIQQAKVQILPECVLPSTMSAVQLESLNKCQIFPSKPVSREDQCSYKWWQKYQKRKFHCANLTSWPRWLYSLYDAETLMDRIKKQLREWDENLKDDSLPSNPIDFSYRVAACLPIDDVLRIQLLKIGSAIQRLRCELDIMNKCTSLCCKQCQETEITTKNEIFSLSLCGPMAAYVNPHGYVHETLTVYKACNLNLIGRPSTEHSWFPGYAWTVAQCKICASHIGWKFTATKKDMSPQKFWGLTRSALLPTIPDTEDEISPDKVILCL
Put plainly: Western blot degradation of ALK. It is filed as cell-based. The conditions noted are these: H2228 Cell; 24 hours. As to the method:
Conventional Western blot assay was performed to evaluate the effects of the compounds of the present disclosure on the expression of target proteins in cells.
(1) Cell Seeding and Protein Harvesting: The selected cells were processed according to the cell seeding procedure and protein harvesting procedure in Table II-2.
(2) To the collected supernatant, 5×SDS sample loading buffer was added, followed by denaturation at 95 °C for 5 minutes. The denatured samples were then separated by SDS-PAGE electrophoresis on a polyacrylamide gel. Proteins were transferred to a nitrocellulose membrane (0.45 μm NC membrane), blocked with blocking buffer at room temperature for 1 hour, and subjected to antibody incubation and development procedures according to the antibody manufacturer's instructions (Cell Signaling Technology).
Half-Maximal Degradation Concentration value (the drug concentration required for degrading proteins by 50%, abbreviated as DC50) reads method: comparing the grayscale values of Western blot bands from drug-treated samples with those from blank DMSO-treated controls, and identifying the drug concentration range at which the grayscale value is half that of the DMSO-treated control bands.
DC50 values can be calculated using ImageJ software to measure grayscale values of Western blot bands from drug-treated samples. The concentration-response curve is fitted to estimate the drug concentration corresponding to half the grayscale value.
Target protein remaining (%) refers to the percentage of target protein remaining in cells after treatment with protein degrader compounds.
Calculation method for target protein remaining (%): Use ImageJ software to measure grayscale values of Western blot bands from drug (protein degrader)-treated samples. The grayscale value of drug-treated bands is divided by that of internal control protein bands, and the resulting quotient is normalized to obtain the relative percentage of remaining target protein after protein degrader treatment.
Target protein degradation rate (%)=1−target protein remaining (%).
For orientation: Immunoblotting shows a protein as a band on a membrane.

For assay [3], the system named is Human malignant melanoma cell line (A375). The assay is described as follows: Inhibition of A375 cell proliferation (CellTiter luminescent viability). As to conditions: A-375, Table III (II1), EZH2 inhibitor-based, 96 hours; for inhibition at 0.01 µM: A375, 10 nM, read-out: Inhibition Rate at 10 nM (%); for inhibition at 0.5 µM: A375, 500 nM, read-out: Inhibition Rate at 500 nM (%). The method, then:
The tumor cells used herein were cultured in a cell culture medium listed in table 3 at 37 °C in an incubator with 5% CO2. Prior to experimentation, all cell lines used were correctly identified by STR profiling, and tested negative for mycoplasma contamination using a mycoplasma detection kit through routine screenings.
The IC50 values of the compounds of the present disclosure (including the compounds in Table 1, Table 2, and Examples 1-468) were determined using the CellTiter-Meiluncell Luminescent Cell Viability Assay Kit from Dalian Meilun Biotech Co., Ltd. The detailed procedure is as follows: Tumor cells were seeded in 96-well cell culture plates at the densities specified in Table 4. On the following day, the test compounds of the present disclosure were subjected to serial dilution. The dilution can be performed according to one of the following two methods: • (1) The first dilution method: The test compounds of the present disclosure (including the compounds in Table 1, Table 2, and Examples 1-468) were subjected to 5-fold serial dilutions starting from a highest concentration of 2000 μM, resulting in a total of 9 concentrations from high to low (2000, 400, 80, 16, 3.2, 0.64, 0.128, 0.0256, 0.00512 μM). Subsequently, 0.5 μL of the test compound dilution was transferred into the 96-well plate containing the cells, with each well containing 100 μL of cell culture medium. […] Into the 96-well plate, the diluted test compounds and corresponding detection reagents were added, resulting in final test compound concentrations of 500 nM and 10 nM, respectively. The experimental procedure is described below using the diluted 2 μM test compound as an example.
0.5 μL of the aforementioned diluted compound of the present disclosure (including the compounds in Table 1, Table 2, and Examples 1-468) was added to the seeded cells in 100 μL of medium, yielding a final test compound concentration of 10 nM. After the cells were treated with the compounds of the present disclosure for a specified period, the cell viability assay reagent was added to the culture medium according to the kit's instructions to determine cell viability. […] All controls were treated using the same procedure as the compounds of the present disclosure. The growth inhibition curves for the compounds of the present disclosure were plotted using Prism GraphPad software, and the IC50 values were calculated therefrom.

SMILES strings stand for the structures.

The values below come from patent US20260364184A1, “COMPOUND BASED ON OXOISOINDOLINYL-SUBSTITUTED TETRAHYDROPYRIMIDINE-DIONE AND USE THEREOF” (GLUETACS THERAPEUTICS (SHANGHAI) CO., LTD., priority 2023, published 2026).

For orientation: inhibition means how much of the control response was suppressed.

Take `CCc1cc2c(cc1N1CCN(Cc3ccc4c(c3)CN(N3CCC(=O)NC3=O)C4=O)CC1)C(C)(C)c1[nH]c3cc(C#N)ccc3c1C2=O` [GT-07340, 8-(4-((2-(2,4-dioxotetrahydropyrimidin-1(2H)-yl)-1-oxoisoindolin-5-yl)methyl)piperazin-1-yl)-9-ethyl-6,6-dimethyl-11-oxo-6,11-dihydro-5H-benzo[b]carbazole-3-carbonitrile]: the IC50 in assay [1] was in the range of 10 to 50 nM. Besides, in assay [2], the “Degradation of substrate protein ALK (substrate protein remaining %)” value (shortened to “Degradation … (substrate protein remaining %)”) was “A (0%≤substrate protein remaining %≤80%)”.
With `COc1cc(N2CCN(Cc3ccc4c(c3)CN(N3CCC(=O)NC3=O)C4=O)CC2)ccc1Nc1ncc(Cl)c(Nc2ccccc2P(C)(C)=O)n1` [GT-07341, 1-(5-((4-(4-((5-chloro-4-((2-(dimethylphosphoryl)phenyl)amino)pyrimidin-2-yl)amino)-3-methoxyphenyl)piperazin-1-yl)methyl)-1-oxoisoindolin-2-yl)dihydropyrimidine-2,4 (1H,3H)-dione], the IC50 in assay [1] fell in the range of 10 to 50 nM. For the same compound, in assay [2], the “Degradation … (substrate protein remaining %)” value was “A (0%≤substrate protein remaining %≤80%)”.
Consider `COc1cc(N2CCN(Cc3ccc4c(c3)C(=O)N(N3CCC(=O)NC3=O)C4=O)CC2)ccc1Nc1ncc(Cl)c(Nc2ccccc2P(C)(C)=O)n1` [GT-07342, 5-((4-(4-((5-chloro-4-((2-(dimethylphosphoryl)phenyl)amino)pyrimidin-2-yl)amino)-3-methoxyphenyl)piperazin-1-yl)methyl)-2-(2,4-dioxotetrahydropyrimidin-1(2H)-yl)isoindoline-1,3-dione], for which the IC50 in assay [1] lay within 100 to 300 nM. Also, the “Degradation … (substrate protein remaining %)” value in assay [2] is on record as “A (0%≤substrate protein remaining %≤80%)”.
As for `COc1cc(N2CCN(CC3CCN(c4ccc5c(c4)C(=O)N(N4CCC(=O)NC4=O)C5=O)CC3)CC2)ccc1Nc1ncc(Cl)c(Nc2ccccc2P(C)(C)=O)n1` [GT-07343, 5-(4-((4-(4-((5-chloro-4-((2-(dimethylphosphoryl)phenyl)amino)pyrimidin-2-yl)amino)-3-methoxyphenyl)piperazin-1-yl)methyl)piperidin-1-yl)-2-(2,4-dioxotetrahydropyrimidin-1(2H)-yl)isoindoline-1,3-dione], the IC50 in assay [1] was 50 to 100 nM. Further, in assay [2], the “Degradation … (substrate protein remaining %)” value is reported as “A (0%≤substrate protein remaining %≤80%)”.
With `COc1cc(N2CCN(CC3CCN(c4cccc5c4C(=O)N(N4CCC(=O)NC4=O)C5=O)CC3)CC2)ccc1Nc1ncc(Cl)c(Nc2ccccc2P(C)(C)=O)n1` [GT-07344, 4-(4-((4-(4-((5-chloro-4-((2-(dimethylphosphoryl)phenyl)amino)pyrimidin-2-yl)amino)-3-methoxyphenyl)piperazin-1-yl)methyl)piperidin-1-yl)-2-(2,4-dioxotetrahydropyrimidin-1(2H)-yl)isoindoline-1,3-dione], in assay [1], the IC50 lay within 50 to 100 nM. The “Degradation … (substrate protein remaining %)” value in assay [2] is “A (0%≤substrate protein remaining %≤80%)”.
Consider `Cc1cc(Nc2ncc(Cl)c(Nc3ccccc3S(=O)(=O)C(C)C)n2)c(OC(C)C)cc1C1CCN(Cc2ccc3c(c2)CN(N2CCC(=O)NC2=O)C3=O)CC1` [GT-07362, 1-(5-((4-(4-((5-chloro-4-((2-(isopropylsulfonyl)phenyl)amino)pyrimidin-2-yl)amino)-5-isopropoxy-2-methylphenyl)piperidin-1-yl)methyl)-1-oxoisoindolin-2-yl)dihydropyrimidine-2,4 (1H,3H)-dione], for which the IC50 in assay [1] was in the range of 10 to 50 nM. In addition, in assay [2], the “Degradation … (substrate protein remaining %)” value is reported as “A (0%≤substrate protein remaining %≤80%)”.
As to `Cc1cc(Nc2ncc(Cl)c(Nc3ccccc3S(=O)(=O)C(C)C)n2)c(OC(C)C)cc1C1CCN(Cc2ccc3c(c2)C(=O)N(N2CCC(=O)NC2=O)C3=O)CC1` [GT-07363, 5-((4-(4-((5-chloro-4-((2-(isopropylsulfonyl)phenyl)amino)pyrimidin-2-yl)amino)-5-isopropoxy-2-methylphenyl)piperidin-1-yl)methyl)-2-(2,4-dioxotetrahydropyrimidin-1(2H)-yl)isoindoline-1,3-dione], the IC50 in assay [1] lay in the range of 100 to 300 nM. Besides, the “Degradation … (substrate protein remaining %)” value in assay [2] is given as “A (0%≤substrate protein remaining %≤80%)”.
`CCN(c1cc(-c2ccc(CN3CCN(Cc4ccc5c(c4)CN(N4CCC(=O)NC4=O)C5=O)CC3)cc2)cc(C(=O)NCc2c(C)cc(C)[nH]c2=O)c1C)C1CCOCC1` [GT-08508, N-((4,6-dimethyl-2-oxo-1,2-dihydropyridin-3-yl)methyl)-4′-((4-((2-(2,4-dioxotetrahydropyrimidin-1(2H)-yl)-1-oxoisoindolin-5-yl)methyl)piperazin-1-yl)methyl)-5-(ethyl(tetrahydro-2H-pyran-4-yl)amino)-4-methyl-[1,1′-biphenyl]-3-carboxamide]: in assay [3], the inhibition at 0.01 µM lay within 20 to 30% and the inhibition at 0.5 µM lay within 20 to 30%.
`CCCc1cc(C)[nH]c(=O)c1CNC(=O)c1cc(-c2ccc(N3CCN(CC4CCN(c5ccc6c(c5)C(=O)N(N5CCC(=O)NC5=O)C6=O)CC4)CC3)nc2)cc2c1cnn2C(C)C` [GT-08516, 6-(6-(4-((1-(2-(2,4-dioxotetrahydropyrimidin-1(2H)-yl)-1,3-dioxoisoindolin-5-yl)piperidin-4-yl)methyl)piperazin-1-yl)pyridin-3-yl)-1-isopropyl-N-((6-methyl-2-oxo-4-propyl-1,2-dihydropyridin-3-yl)methyl)-1H-indazole-4-carboxamide]: in assay [3], the inhibition at 0.01 µM was 20 to 30% and the inhibition at 0.5 µM lay within 20 to 30%.
Take `CCN(c1cc(-c2ccc(CN3CCN(CC4CCN(c5ccc6c(c5)C(=O)N(N5CCC(=O)NC5=O)C6=O)CC4)CC3)cc2)cc(C(=O)NCc2c(C)cc(C)[nH]c2=O)c1C)C1CCOCC1` [GT-08518, N-((4,6-dimethyl-2-oxo-1,2-dihydropyridin-3-yl)methyl)-4′-((4-((1-(2-(2,4-dioxotetrahydropyrimidin-1(2H)-yl)-1,3-dioxoisoindolin-5-yl)piperidin-4-yl)methyl)piperazin-1-yl)methyl)-5-(ethyl(tetrahydro-2H-pyran-4-yl)amino)-4-methyl-[1,1′-biphenyl]-3-carboxamide]: in assay [3], the inhibition at 0.01 µM lay within 20 to 30% and the inhibition at 0.5 µM lay within 20 to 30%.
Turning to `CCN(c1cc(-c2ccc(CN3CCOCC3)cc2)cc(C(=O)NCc2c(C)cc(C)[nH]c2=O)c1C)C1CCOCC1` [Tazemetostat, reference compound], in assay [3], the inhibition at 0.01 µM fell in the range of 0 to 5% and the inhibition at 0.5 µM fell in the range of 0 to 5%.
